EP0052238B1, “A new vincamine derivative, a method for its preparation and pharmaceutical compositions containing it” (MEDEA RESEARCH S.r.l., priority 1980, dated 1982)

Assays:
[1] = tested on: smooth musculature of the isolated ileum of rabbits, made hypertonic by serotonin; assay: Myorelaxing effect on isolated ileum made hypertonic by serotonin; details: isolated rabbit ileum, relative to vincamine
Text: (§1) The myorelaxing effect of MR 711 and vincamine has been investigated on the smooth musculature of the isolated ileum of rabbits, made hypertonic by sodium ions or serotonin.

[2] = tested on: smooth musculature of the isolated ileum of rabbits, made hypertonic by sodium ions; assay: Myorelaxing effect on isolated ileum made hypertonic by sodium ions; details: isolated rabbit ileum, relative to vincamine
Text: as §1

[3] = Acute toxicity in mice (LD50, Lichtfield and Wilcoxon); details: mouse, in vivo, ip
mice = assay: Protective action on the mortality by hypobaric hypoxia; type: in vivo; details: intravenous route, 25.6 mg/kg; for Survival time: pressure reduced until 190 mm Hg; for % Variation: survival time versus controls

| SMILES | activity in inhibiting the serotonin induced contractions, higher than the corresponding activity displayed by vincamine [1] [%] | activity in inhibiting the sodium ions induced contractions, higher than the corresponding activity displayed by vincamine [2] [%] | LD50 [3] [mg/kg] | Survival time (mice) [s] | % Variation (mice) |
| --- | --- | --- | --- | --- | --- |
| CCC12C=C(C(=O)OCOC)n3c4c(c5ccccc53)CCN(CCC1)C42 (centres unmarked) [MR 711, 13a-ethyl-2,3,5,6,13a,13b-hexahydro-1 H-indolo[3,2,1-de]pyrido[3,2,1-ij]-[1,5]naphthyridine-12-methoxymethylcarboxylate] | 70 | 46 | 580 | 262.9 ± 31.4 | +263% |
| CC[C@]12CCCN3CCc4c(n(c5ccccc45)[C@@](O)(C(=O)OC)C1)[C@@H]32 [Vincamine] |  |  | 195 | 213.3 ± 37.9 | +194% |
